Data: the supplement of paper PMC10307832

Experiments:
GSK-J4 + Trametinib = compound: CCOC(=O)CCNc1cc(N2CCc3ccccc3CC2)nc(-c2ccccn2)n1 [GSK-J4] + CC(=O)Nc1cccc(-n2c(=O)n(C3CC3)c(=O)c3c(Nc4ccc(I)cc4F)n(C)c(=O)c(C)c32)c1 [Trametinib] (partner 0.02 µM); assay: relative viability (nuclei count vs DMSO), 5 days (fraction); higher = more cells survive
How it was run: (§1)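 Medians of duplicate plates are given as relative viability. That measure is the nuclei count in treated wells divided by the count in vehicle wells. Counts were taken on 4× images of lung cancer cell lines in 1536-well plates, 5 days after pin-tool dosing the day after seeding with one drug alone or a fixed anchor-drug dose plus five library-drug doses (not always all listed) in √10 steps.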

GSK-J4 + AZD7762 = compound: CCOC(=O)CCNc1cc(N2CCc3ccccc3CC2)nc(-c2ccccn2)n1 [GSK-J4] + NC(=O)Nc1cc(-c2cccc(F)c2)sc1C(=O)N[C@H]1CCCNC1 [AZD7762] (partner 0.2 µM); assay: as above
How it was run: as §1

| Cell Line | relative viability (GSK-J4 + Trametinib; first compound 0.5 µM) | relative viability (GSK-J4 + Trametinib; first compound 1.581 µM) | relative viability (GSK-J4 + Trametinib; first compound 5 µM) | relative viability (GSK-J4 + Trametinib; first compound 15.81 µM) | relative viability (GSK-J4 + Trametinib; first compound 50 µM) | relative viability (GSK-J4 + AZD7762; first compound 0.5 µM) | relative viability (GSK-J4 + AZD7762; first compound 1.581 µM) | relative viability (GSK-J4 + AZD7762; first compound 5 µM) | relative viability (GSK-J4 + AZD7762; first compound 15.81 µM) | relative viability (GSK-J4 + AZD7762; first compound 50 µM) |
| --- | --- | --- | --- | --- | --- | --- | --- | --- | --- | --- |
| 201T | 0.719 | 0.615 | 0.711 | 0.735 | 0.69 | 0.602 | 0.673 | 0.581 | 0.561 | 0.609 |
| A-427 | 0.702 | 0.567 |  | 0.559 | 0.552 | 0.684 | 0.441 |  | 0.576 | 0.328 |
| ABC-1 |  |  |  |  |  | 0.784 | 0.784 | 0.955 | 0.666 | 0.445 |
| BEN | 1.1 | 0.883 | 0.88 | 0.896 | 0.917 | 0.694 | 0.634 | 0.441 | 0.567 | 0.426 |
| CAL-12T | 0.337 | 0.314 | 0.424 | 0.288 | 0.254 | 0.705 | 0.646 | 0.557 | 0.649 | 0.675 |
| COR-L23 | 0.461 | 0.576 |  | 0.544 | 0.429 |  |  |  |  |  |
| COR-L 105 | 0.467 |  | 0.46 | 0.458 | 0.451 |  |  |  |  |  |
| ChaGo-K-1 | 0.934 |  | 0.939 | 0.841 | 0.808 | 0.873 |  | 0.774 | 0.912 | 0.766 |
| EKVX | 0.337 |  | 0.515 | 0.307 | 0.21 | 0.714 |  | 0.732 | 0.669 | 0.535 |
| EMC-BAC-2 | 0.901 | 0.819 |  | 0.777 | 0.831 | 1.12 | 0.831 |  | 1.07 | 0.893 |
| EPLC-272H | 0.328 | 0.251 | 0.325 | 0.272 | 0.232 | 0.206 | 0.23 | 0.162 | 0.138 | 0.147 |
| H3255 | 0.656 |  | 0.53 | 0.48 | 0.541 | 0.827 | 0.791 | 0.727 | 0.791 | 0.656 |
| HARA | 0.6 | 0.799 |  | 0.516 | 0.471 | 0.349 | 0.36 |  | 0.218 | 0.161 |
| HCC-15 | 0.376 | 0.377 | 0.413 | 0.298 | 0.272 | 1.19 | 1.09 | 1.12 | 0.982 | 1.22 |
| HCC-44 | 1.1 | 0.91 | 1.06 | 1.04 | 1.03 | 0.95 | 0.939 | 0.962 | 1.11 | 1.05 |
| HCC-78 | 0.765 | 0.706 | 1.15 | 0.559 | 1.02 | 0.686 | 0.702 | 0.874 | 0.485 | 0.583 |
| HCC-366 | 0.354 | 0.319 |  | 0.234 | 0.21 | 0.325 | 0.258 |  | 0.226 | 0.312 |
| HCC-827 | 0.566 | 0.58 | 0.72 | 0.448 | 0.513 | 0.203 | 0.565 | 0.252 | 0.197 | 0.21 |

| Cell Line | relative viability (GSK-J4 + Trametinib; first compound 0.5 µM) | relative viability (GSK-J4 + Trametinib; first compound 1.581 µM) | relative viability (GSK-J4 + Trametinib; first compound 5 µM) | relative viability (GSK-J4 + Trametinib; first compound 15.81 µM) | relative viability (GSK-J4 + Trametinib; first compound 50 µM) | relative viability (GSK-J4 + AZD7762; first compound 0.5 µM) | relative viability (GSK-J4 + AZD7762; first compound 1.581 µM) | relative viability (GSK-J4 + AZD7762; first compound 5 µM) | relative viability (GSK-J4 + AZD7762; first compound 15.81 µM) | relative viability (GSK-J4 + AZD7762; first compound 50 µM) |
| --- | --- | --- | --- | --- | --- | --- | --- | --- | --- | --- |
| HOP-62 | 0.39 | 0.309 | 0.334 | 0.337 | 0.301 | 0.555 | 0.573 | 0.45 | 0.592 | 0.451 |
| LC-2-ad | 0.847 | 0.76 | 0.835 | 0.908 | 0.886 | 0.845 | 0.756 | 0.634 | 0.785 | 0.81 |
| LCLC-97TM1 | 0.182 | 0.155 | 0.168 | 0.128 | 0.156 | 0.197 | 0.23 | 0.384 | 0.209 | 0.337 |
| LCLC-103H | 0.68 | 0.64 | 0.674 | 0.622 | 0.626 | 0.811 | 0.76 | 0.525 | 0.69 | 0.65 |
| LK-2 | 0.655 | 0.727 | 1.27 | 0.664 | 1.04 | 0.53 | 0.29 | 0.663 | 0.168 | 0.19 |
| LOU-NH91 | 0.816 | 0.427 | 0.638 | 0.718 | 0.803 | 0.773 | 0.734 | 0.561 | 0.703 | 0.74 |
| LU99A | 0.551 | 0.485 |  | 0.441 | 0.35 | 0.277 | 0.249 |  | 0.244 | 0.126 |
| LXF-289 | 0.696 | 0.592 | 0.688 | 0.654 | 0.584 | 1.09 | 0.836 | 0.742 | 1.07 | 0.987 |
| NCI-H23 | 0.354 | 0.367 | 0.393 | 0.285 | 0.34 | 0.206 | 0.388 | 0.254 | 0.239 | 0.265 |
| NCI-H322M | 0.513 | 0.482 | 0.623 | 0.457 | 0.503 | 0.618 | 0.506 | 0.555 | 0.636 | 0.536 |
| NCI-H358 | 0.145 |  | 0.157 | 0.118 | 0.131 | 0.598 | 0.576 | 0.692 | 0.606 | 0.44 |
| NCI-H441 | 0.498 | 0.386 | 0.492 | 0.383 | 0.352 | 1.12 | 1 | 1.05 | 1.01 | 0.967 |
| NCI-H460 | 0.258 |  | 0.143 | 0.0717 | 0.0851 | 0.645 |  |  | 0.65 | 0.555 |
| NCI-H520 | 0.625 | 0.486 | 0.577 | 0.559 | 0.472 |  |  |  |  |  |
| NCI-H522 | 0.817 | 0.6 |  | 0.75 | 0.7 | 0.909 | 0.759 |  | 0.637 | 0.603 |
| NCI-H596 | 0.797 | 0.759 | 0.639 | 0.725 | 0.771 | 1.18 | 1.12 | 1.01 | 0.926 | 1.12 |
| NCI-H647 | 0.521 | 0.393 | 0.357 | 0.445 | 0.499 | 0.596 | 0.431 | 0.271 | 0.386 | 0.44 |
| NCI-H650 | 0.949 | 0.871 |  | 0.771 | 0.745 | 0.938 | 1.04 |  | 0.782 | 0.696 |
